The text below walks through data of US20030064895A1, “Genes for s-adenosyl l-methionine: jasmonic acid carboxyl methyltransferase and a method for the development of pathogen-and stress-resistant plants using the genes” (priority 2000, published 2003).

One test deals with T1, JMT enzyme (GST-JMT) (Arabidopsis thaliana, UniProt Q9AR07).
T1 construct: it could be noted that this selected cDNA clone is a full-length cDNA clone; made in house; host or cells: E. coli BL21 (pGEX-2T, plasmid pGST-JMT)
T1 sequence (Q9AR07 1-389): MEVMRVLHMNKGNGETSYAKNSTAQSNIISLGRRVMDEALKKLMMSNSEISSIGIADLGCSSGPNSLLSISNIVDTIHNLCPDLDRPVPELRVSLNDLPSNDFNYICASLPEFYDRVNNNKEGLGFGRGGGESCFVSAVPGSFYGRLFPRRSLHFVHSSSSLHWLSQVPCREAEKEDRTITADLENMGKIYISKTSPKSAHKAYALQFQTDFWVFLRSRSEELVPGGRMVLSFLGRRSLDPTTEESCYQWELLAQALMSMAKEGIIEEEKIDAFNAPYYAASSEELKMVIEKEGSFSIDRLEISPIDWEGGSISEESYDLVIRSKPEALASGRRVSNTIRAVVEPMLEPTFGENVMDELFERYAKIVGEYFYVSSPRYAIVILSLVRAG
In words: Substrate specificity of fusion enzyme protein GST-JMT with SAM / [14C]SAM. The test is classed as biochemical. To be noted: reaction with JA defined to be 100%.

The target in test [1] is T2, jasmonic acid carboxyl methyltransferase (Arabidopsis thaliana, UniProt Q9AR07).
T2 construct: it could be noted that this selected cDNA clone is a full-length cDNA clone; made in house; host or cells: E. coli BL21 (pGEX-2T, plasmid pGST-JMT)
T2 sequence (Q9AR07 1-389): T1 sequence (Q9AR07 1-389)
Kind of test: Kinetic parameters of recombinant JMT protein (Lineweaver-Burk plot). The test is classed as biochemical. To be noted: named substance as substrate of recombinant JMT; for Km: SAM and JA as substrates.

In test [2] the test system is pathogens belonging to Phytium genus. To be noted: treatment at the level of 130 μM; cited from earlier work.

“Also recorded” adds a separate entry of the source.

The term Km denotes the substrate concentration at which the rate is half of its maximum.

In the case of `O=C(O)c1ccccc1O` [SA, salicylic acid], at JMT enzyme (GST-JMT), the “reactivity as methyl acceptor substrate of JMT enzyme” value (from here on “reactivity”) is given as “substantially not react; also recorded: substantially not proceeded”.
As to S-adenosyl methionine [SAM], in test [1], the Kcat was 70 s⁻¹, the Vm worked out at 84 nmol/min and the Km is 6.3 µM.
Regarding `O=C(O)c1ccccc1` [BA, benzoic acid], the “reactivity” value at JMT enzyme (GST-JMT) is recorded as “substantially not react; also recorded: substantially not proceeded”.
With jasmonic acid [(±)JA], the “reactivity” value at JMT enzyme (GST-JMT) is recorded as “high reactivity”. Besides, in test [1], the Kcat came out at 15 s⁻¹, the Vm was 30 nmol/min and the Km was found to be 38.5 µM. Also, in test [2], the “effect on the growth of pathogen” value is listed as “no effect”.
